Like-named read-outs stand apart in the source and are kept apart here.
Experiments:
[1] = target: GST-tagged K-Ras mutant / His-tagged hSOS1 (Homo sapiens, UniProt P01116); assay: HTRF assay, K-Ras mutant / SOS1 interaction; assay type: binding; conditions: read-out: IC50 against mutant Kras
In short: (§1)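 Tagged proteins: GST-K-Ras (wt or mutant), His-hSOS1; labels anti-GST-Eu/anti-6His-XL665; HEPES pH 7.4 buffer with DTT, BSA, Igepal. Read ≥10 min post-mix at ex 337 nm; IC50 from ratiometric data, duplicates.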

wildtype Kras / hSOS1 = target: T1, wildtype Kras / hSOS1 (Homo sapiens, UniProt P01116); assay: HTRF assay, wildtype Kras / SOS1 interaction; assay type: binding; conditions: read-out: IC50 against wildtype Kras
T1 construct: made in house; host or cells: E. coli BL21 (DE3)
In short: as §1

[2] = compound nos. 201-213, general methodology of example 5
[3] = compound nos. 102-196, general methodology of example 5

Chain of GST-tagged K-Ras mutant / His-tagged hSOS1 (P01116 whole entry G12D, form open): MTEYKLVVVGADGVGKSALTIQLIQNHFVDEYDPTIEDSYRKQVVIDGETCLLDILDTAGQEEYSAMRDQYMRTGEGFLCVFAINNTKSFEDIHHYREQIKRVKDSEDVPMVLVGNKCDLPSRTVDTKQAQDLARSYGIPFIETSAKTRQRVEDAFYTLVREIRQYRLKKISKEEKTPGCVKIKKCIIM
T1 sequence (P01116 1-188 isoform P01116-2): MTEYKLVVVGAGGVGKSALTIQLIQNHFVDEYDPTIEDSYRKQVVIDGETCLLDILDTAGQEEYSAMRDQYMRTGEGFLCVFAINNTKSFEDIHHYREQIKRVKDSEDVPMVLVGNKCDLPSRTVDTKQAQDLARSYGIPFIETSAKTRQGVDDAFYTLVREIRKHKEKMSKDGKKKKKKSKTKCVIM

Compound	IC50 ([1]; compound nos. 401-703)	IC50 (wildtype Kras / hSOS1; compound nos. 401-703)	further results
Nc1nc2c(C3CCc4c(nc(OC[C@@]56CCCN5C[C@H](F)C6)nc4N4CCNCC(F)(F)C4)C3)cccc2s1 (stereo partly drawn) [Compound 509, 4-(4-(6,6-difluoro-1,4-diazepan-1-yl)-2-(((2R,7aS)-2-fluorotetrahydro-1H-pyrrolizin-7a(5H)-yl)meth-oxy)-5,6,7,8-tetrahydro-quinazolin-7-yl)benzo[d]-thiazol-2-amine]	> 500 nM	> 500 nM	
C#Cc1c(F)ccc2cc(O)cc(-c3ccc4c(N5CCCC6(CNC6)C5)nc(OC[C@@]56CCCN5C[C@H](F)C6)nc4c3F)c12 [Compound 508, 5-ethynyl-6-fluoro-4-(8-fluoro-2-(((2R,7aS)-2-fluorotetrahydro-1H-pyrrol-izin-7a(5H)-yl)methoxy)-4-(2,6-diazaspiro[3.5]nonan-6-yl)quinazolin-7-yl)naph-thalen-2-ol]	< 500 nM	> 500 nM	
Nc1nc2c(-c3c(Cl)cc4c(N5CCC6CCC(C5)N6)nc(OCC56CCCN5CCC6)nc4c3F)ccc(F)c2s1 (stereo not drawn) [Compound 494, 4-(4-(3,9-diazabicyclo-[4.2.1]nonan-3-yl)-6-chloro-8-fluoro-2-((tetrahydro-1H-pyrrolizin-7a(5H)-yl)meth-oxy)quinazolin-7-yl)-7-fluorobenzo[d]thiazol-2-amine]	< 500 nM	< 500 nM	
Nc1cccc(-c2ccc(O)cc2-c2c(Cl)cc3c(N4CC5CCC(C4)N5)nc(OCC45CCCN4CCC5)nc3c2F)c1 [Compound 652, 2-(4-(3,8-diazabicyclo-[3.2.1]octan-3-yl)-6-chloro-8-fluoro-2-((tetrahydro-1H-pyrrolizin-7a(5H)-yl)meth-oxy)quinazolin-7-yl)-3′-amino-[1,1′-biphenyl]-4-ol]	> 500 nM	> 500 nM	
CN(CCC1CCC[N+]1(C)C)c1nc(N2CC3CCC(C2)N3)c2ccc(-c3ccc(F)c4sc(N)nc34)nc2n1 (stereo not drawn) [Compound 647, 4-(4-(3,8-diazabicyclo-[3.2.1]octan-3-yl)-2-((2-(1,1-dimethyl-114-pyrrol-idin-2-yl)ethyl)(methyl)-amino)pyrido[2,3-d]pyr-imidin-7-yl)-7-fluoroben-zo[d]thiazol-2-amine]	> 500 nM	> 500 nM	
Nc1nc2c(-c3c(Cl)cc4c(N5CCCCCC5)nc(OC[C@@]56CCCN5C[C@H](F)C6)nc4c3F)ccc(F)c2s1 [Compound 499, 4-(4-(azepan-1-yl)-6-chloro-8-fluoro-2-(((2R,7aS)-2-fluorotetrahydro-1H-pyrrol-izin-7a(5H)-yl)methoxy)-quinazolin-7-yl)-7-fluoro-benzo[d]thiazol-2-amine]	< 500 nM	< 500 nM	
Nc1nc2c(-c3c(Cl)cc4c(N5CC6CNC(C6)C5)nc(OC[C@@]56CCCN5C[C@H](F)C6)nc4c3F)ccc(F)c2s1 (stereo partly drawn) [Compound 201, 4-(4-(3,6-diazabicyclo[3.2.1]octan-3-yl)-6-chloro-8-fluoro-2-(((2R,7aS)-2-fluorotetrahydro-1H-pyrrolizin-7a(5H)-yl)methoxy)quinazolin-7-yl)-7-fluorobenzo[d]thiazol-2-amine]			IC50 [1, 2]: < 1500 nM; IC50 (wildtype Kras / hSOS1; [2]): < 1500 nM
Cc1cc(N)nc(-c2ccc3c(N4CC5CCC(C4)N5)nc(OC[C@@]45CCCN4C[C@H](F)C5)nc3c2F)c1C1CC1 [Compound 648, 6-(4-(3,8-diazabicyclo-[3.2.1]octan-3-yl)-8-fluoro-2-(((2R,7aS)-2-fluorotetra-hydro-1H-pyrrolizin-7a(5H)-yl)methoxy)quinazolin-7-yl)-5-cyclopropyl-4-methyl-pyridin-2-amine]	> 500 nM	> 500 nM	
CN1CCC[C@H]1COc1nc(N2CCCC(F)(F)CC2)c2cc(Cl)c(-c3cccc4sc(N)nc34)c(F)c2n1 [Compound 119, 4-(6-chloro-4-(4,4-difluoro-azepan-1-yl)-8-fluoro-2-(((S)-1-methylpyrrolidin-2-yl)methoxy)quinazolin-7-yl)-benzo[d]thiazol-2-amine]			IC50 [1, 3]: > 500 nM; IC50 (wildtype Kras / hSOS1; [3]): < 500 nM
